Consider 37 compounds from patent US8592422B2, “Bicyclic triazole and pyrazole lactams as allosteric modulators of mGluR5 receptors” (Vanderbilt University, priority 2010, dated 2013).

Some results are limits rather than exact numbers.

One may read the EC50 as the concentration needed to bring the measured effect to its halfway point. What is called Emax is the greatest response seen or fitted, relative to the assay's reference. As a reminder, the pEC50 is the EC50 on a negative log10 scale, so that one unit is a factor of ten.

The target of this test is T1, human mGluR5a receptor (Homo sapiens, UniProt P41594).
T1 construct: cDNA subcloned into pcDNA3.1(-)
The test can be described thus: Cell-based functional Ca2+ mobilization assay (FDSS), potentiation of glutamate EC20 response. The note with it: for EC50 / pEC50: HEK cells transfected with human mGluR5 (H10H or H12H), in presence of EC20 glutamate; for EC50: read-out: EC50; for Emax / Emax (%): maximum % effect in concentration-response curve, as percent of response to maximally effective glutamate. As to the method: Human embryonic kidney (HEK) cells transfected with rat mGluR5 were plated in clear bottom assay plates for assay in a Functional Drug Screening System (FDSS). In the alternative assay, HEK cells transfected with human mGluR5 were plated for assay in the FDSS. In some cases the HEK cells transfected with human mGluR5 were the H10H cell line. Alternatively, the HEK cells transfected with human mGluR5 were the H12H cell line. […] The cells were loaded with a Ca^2+-sensitive fluorescent dye (e.g., Fluo-4), and the plates were washed and placed in the FDSS instrument. After establishment of a fluorescence baseline for twelve seconds, the compounds of the present invention were added to the cells, and the response in cells was measured. Alternatively, in various further aspects, after establishment of a fluorescence baseline for about three seconds, the compounds of the present invention were added to the cells, and the response in cells was measured. Five minutes later, an mGluR5 agonist (e.g., glutamate, 3,5-dihydroxyphenylglycine, or quisqualate) was added to the cells, and the response of the cells was measured.
The above described assay operated in two modes. In the first mode, a range of concentrations of the present compounds were added to cells, followed by a single fixed concentration of agonist. If a compound acted as a potentiator, an EC50 value for potentiation and a maximum extent of potentiation by the compound at this concentration of agonist was determined by non-linear curve fitting. In the second mode, several fixed concentrations of the present compounds were added to various wells on a plate, followed by a range of concentrations of agonist for each concentration of present compound; the EC50 values for the agonist at each concentration of compound were determined by non-linear curve fitting. A decrease in the EC50 value of the agonist with increasing concentrations of the present compounds (a leftward shift of the agonist concentration-response curve) is an indication of the degree of mGluR5 potentiation at a given concentration of the present compound. An increase in the EC50 value of the agonist with increasing concentrations of the present compounds (a rightward shift of the agonist concentration-response curve) is an indication of the degree of mGluR5 antagonism at a given concentration of the present compound. The second mode also indicates whether the present compounds also affect the maximum response to mGluR5 to agonists.
The mGluR5 activity was determined using the metabotropic glutamate receptor activity assays in human embryonic kidney cells as described herein, wherein the human embryonic kidney cells were transfected with human mGluR5. The compounds in Table 1 were synthesized with methods identical or analogous to those shown herein. The requisite starting materials were commercially available, described in the literature, or readily synthesized by one skilled in the art of organic synthesis. The compound number given in Table I corresponds to the compound number in Table II and the structure given therein.
Human mGluR5a cDNA in pCMV6-XL6 mammalian expression plasmid was purchased from OriGene Technologies, Inc. (catalogue number SC326357) and subcloned into pcDNA3.1(−). Human embryonic kidney (HEK) 293A cells were then transfected with human mGluR5a pcDNA3.1(−) using LipofectAmine-2000 (Invitrogen) and monoclones were selected and tested for functional response using a Ca^2+ mobilization assay. Monoclones were named for the species (“H” for human) plus the location on the plate (e.g. “10H”).
HEK cells transfected with the human mGluR5a receptor (H10H or H12H cell line) were plated at 15,000 cells/well in clear-bottomed poly-D-lysine-coated assay plates (BD Falcon) in glutamate-glutamine-free growth medium and incubated overnight at 37° C. and 5% CO2.

T1 sequence (P41594 21-1180 isoform P41594-2 limits assumed): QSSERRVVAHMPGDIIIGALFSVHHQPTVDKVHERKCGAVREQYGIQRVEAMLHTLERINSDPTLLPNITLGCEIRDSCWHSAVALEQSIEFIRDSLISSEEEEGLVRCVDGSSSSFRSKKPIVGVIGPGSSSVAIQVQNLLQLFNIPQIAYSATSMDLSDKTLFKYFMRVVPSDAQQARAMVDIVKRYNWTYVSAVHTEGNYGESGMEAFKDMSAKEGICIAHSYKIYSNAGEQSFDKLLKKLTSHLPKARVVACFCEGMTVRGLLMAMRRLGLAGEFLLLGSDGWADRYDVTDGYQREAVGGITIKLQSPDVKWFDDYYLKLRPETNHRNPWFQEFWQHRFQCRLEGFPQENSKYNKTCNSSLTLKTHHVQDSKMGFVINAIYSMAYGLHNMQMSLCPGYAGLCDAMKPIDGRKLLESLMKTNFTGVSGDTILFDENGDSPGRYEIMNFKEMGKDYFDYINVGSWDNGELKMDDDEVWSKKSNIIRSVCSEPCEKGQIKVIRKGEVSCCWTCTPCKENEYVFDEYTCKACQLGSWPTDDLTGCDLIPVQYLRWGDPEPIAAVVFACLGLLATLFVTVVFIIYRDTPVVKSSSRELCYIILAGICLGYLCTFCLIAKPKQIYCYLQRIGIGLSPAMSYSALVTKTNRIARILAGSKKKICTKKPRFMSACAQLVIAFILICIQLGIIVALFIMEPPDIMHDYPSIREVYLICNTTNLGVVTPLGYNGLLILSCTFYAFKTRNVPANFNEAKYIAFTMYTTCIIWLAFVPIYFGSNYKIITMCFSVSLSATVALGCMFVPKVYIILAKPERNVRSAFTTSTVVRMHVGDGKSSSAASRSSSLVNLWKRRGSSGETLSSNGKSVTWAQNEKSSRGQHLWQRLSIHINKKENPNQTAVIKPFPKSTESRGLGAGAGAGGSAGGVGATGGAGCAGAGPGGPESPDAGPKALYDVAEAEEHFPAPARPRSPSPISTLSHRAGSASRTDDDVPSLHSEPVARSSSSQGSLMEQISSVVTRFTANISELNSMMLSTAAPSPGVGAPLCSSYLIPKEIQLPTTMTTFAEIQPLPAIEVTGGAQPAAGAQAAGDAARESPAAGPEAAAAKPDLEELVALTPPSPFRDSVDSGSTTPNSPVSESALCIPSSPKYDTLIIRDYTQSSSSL

Regarding `COc1cc(N2CCn3nc(COc4ccccc4)cc3C2=O)nnc1Cl` [Example 296], the EC50 came out at 620 nM and the Emax came to 50%.
In the case of `Cc1cccc(N2CCn3nc(COc4ccc(F)cc4)cc3C2=O)c1` [Example 224], the pEC50 came to 7.02, the EC50 stood at 95 nM and the “Emax (%)” value is 72%.
For `N#Cc1cccc(N2CCn3nc(COc4ccccc4)cc3C2=O)n1` [Example 95], in that order: 6.82, 150 nM and 54%.
For `O=C1c2cc(COc3cccnc3)nn2CCN1CC1CC1` [Example 170], in that order: under 5.00, over 10000 nM and 45%.
`Cc1cc(N(C)C)nc(N2CCn3nc(COc4ccccc4)cc3C2=O)c1` [Example 290]: the pEC50 is on record as 7.33, the EC50 came out at 47 nM and the “Emax (%)” value is 56%.
For `Cn1cncc1N1CCn2nc(COc3ccccc3)cc2C1=O` [Example 352], in that order: under 5.00, over 10000 nM and 55%.
For the compound `CC1Cn2nc(COc3ccccc3)cc2C(=O)N1c1ccc(F)cc1` (stereo not drawn) [Example 157], the negative-log EC50 (pEC50) is 6.24, the EC50 amounted to 575 nM and the “Emax (%)” value worked out at 63%.
In the same order, the values of `COc1cc(N2CCn3nc(COc4ccccc4)cc3C2=O)nc(OC)n1` [Example 122] are 6.91, 120 nM and 61%.
In the same order, the values of `O=C1c2cc(COc3cccc(F)c3)nn2CCN1c1ccc(F)cc1` [Example 188] are 6.83, 148 nM and 66%.
For `COc1ccc(C)c(N2CCn3nc(COc4ccccc4)cc3C2=O)n1` [Example 109], in that order: 7.13, 74 nM and 63%.
Regarding `O=C1NCCn2nc(COc3ccccc3)cc21` [Example 1], the negative logarithm of the EC50 (pEC50) turned out to be 5.65, the EC50 is 2240 nM and the “Emax (%)” value was determined as 69%.
Regarding `O=C1c2cc(COc3cccnc3)nn2CCN1c1ccc(F)cc1` [Example 158], the EC50 is 3090 nM and the Emax was found to be 69%.
On to `O=C1c2cc(COc3ccccc3)nn2CCN1c1ncccn1` [Example 77], for which the pEC50 was under 5.00, the EC50 was over 10000 nM and the “Emax (%)” value is listed as 42%.
Regarding `C[C@@H]1Cn2nc(COc3cccc(C#N)c3)cc2C(=O)N1c1ccc(F)cc1` [Example 246], the concentration giving a half-maximal response (EC50) is 214 nM and the Emax came to 69%.
In the case of `O=C1c2cc(COc3ccccc3)nn2CCN1c1cccc(C2CC2)n1` [Example 66], the negative-log EC50 (pEC50) is listed as 7.03, the EC50 was found to be 93 nM and the “Emax (%)” value was found to be 72%.
For `COc1cnc(N2CCn3nc(COc4ccccc4)cc3C2=O)cn1` [Example 101], in that order: 6.53, 295 nM and 78%.
`CN(C)c1cccnc1N1CCn2nc(COc3ccccc3)cc2C1=O` [Example 289]: the EC50 came to 1200 nM and the Emax worked out at 65%.
Consider `COc1nc(N2CCn3nc(COc4ccccc4)cc3C2=O)ncc1Cl` [Example 295], for which the negative-log EC50 (pEC50) was found to be 7.56, the EC50 was 28 nM and the “Emax (%)” value was 69%.
Consider `CN(C)c1ccc(F)c(N2CCn3nc(COc4ccccn4)cc3C2=O)n1` [Example 314], for which the pEC50 came out at 6.69, the EC50 was found to be 204 nM and the “Emax (%)” value was found to be 70%.
In the same order, the values of `CC1Cn2nc(COc3ccccc3)cc2C(=O)N1c1ccc(F)cc1` (racemic) [Example 18] are 6.79, 162 nM and 70%.
For `O=C1c2cc(COc3ccccc3)nn2CCN1c1cccc(CCF)n1` [Example 75], in that order: 6.69, 204 nM and 68%.
For `CCOc1ccccc1N1CCn2nc(COc3ccccc3)cc2C1=O` [Example 57], the pEC50 came to 6.82, the EC50 was 150 nM and the “Emax (%)” value worked out at 67%.
For `CC(Oc1ccccc1)c1cc2n(n1)CCN(c1ccc(F)cc1)C2=O` (racemic) [Example 258], in that order: under 5.00, over 10000 nM and 65%.
For `COc1nc(N2C(=O)c3cc(COc4ccccc4)nn3CC2C)ncc1F` (stereo not drawn) [Example 147], the negative-log EC50 (pEC50) is 6.27, the EC50 amounted to 537 nM and the “Emax (%)” value is 72%.
For `Cc1ccc(N2CCn3nc(COc4ccccc4)cc3C2=O)nc1` [Example 16], in that order: 6.68, 209 nM and 76%.
Consider `COc1ccc(F)c(N2CCn3nc(COc4ccccn4)cc3C2=O)n1` [Example 208], for which the pEC50 came out at 6.46, the EC50 came to 347 nM and the “Emax (%)” value came to 69%.
On to `O=C1c2cc(COc3ccccc3)nn2CCN1c1ncccc1F` [Example 81], for which the pEC50 was determined as 6.26, the EC50 was found to be 550 nM and the “Emax (%)” value was 67%.
For `O=C1c2cc(COc3ccncc3)nn2CCN1c1ccc(F)cn1` [Example 176], in that order: 5.75, 1780 nM and 64%.
Take `O=C1c2cc(COc3ccncc3)nn2CCN1CC1CC1` [Example 163]: the EC50 amounted to 2240 nM and the maximal effect (Emax) worked out at 63%.
As for `CC(C)c1cccc(N2CCn3nc(COc4ccccn4)cc3C2=O)n1` [Example 207], the pEC50 is listed as 6.36, the EC50 is 437 nM and the “Emax (%)” value amounted to 69%.
In the same order, the values of `COc1nccnc1N1CCn2nc(COc3ccc(F)cc3)cc2C1=O` [Example 226] are 6.08, 830 nM and 57%.
As for `Cc1ccc(OCc2cc3n(n2)CCN(c2ccc(F)cc2)C3=O)cc1` [Example 192], the EC50 was 240 nM and the Emax came to 57%.
As for `Cc1cccc(N2CCn3nc(COc4ccccc4)cc3C2=O)c1` [Example 48], the pEC50 is on record as 7.09, the concentration giving a half-maximal response (EC50) came to 81 nM and the “Emax (%)” value was found to be 65%.
In the same order, the values of `COc1ccc(N2CCn3nc(COc4ccccc4)cc3C2=O)cc1` [Example 50] are 6.92, 120 nM and 58%.
For `Cc1ccc(F)cc1N1CCn2nc(COc3ccccc3)cc2C1=O` [Example 61], the pEC50 worked out at 7.19, the EC50 was 65 nM and the “Emax (%)” value was found to be 68%.
For `CC1Cn2nc(COc3ccccc3)cc2C(=O)N1CC1CC1` (stereo not drawn) [Example 136], in that order: 6.13, 741 nM and 56%.
In the same order, the values of `CC1CN(c2ccc(F)cc2)C(=O)c2cc(COc3ccccn3)nn21` (single isomer, unassigned) [Example 240] are under 4.52, over 30200 nM and 23%.
